From EP0618917B1, “1'-AMINO-2- (BENZOTHIAZOLYL)METHYL]SPIRO ISOQUINOLINE-4(1H),3'-PYRROLIDINE]-1,2',3,5'(2H)-TETRONES AND ANALOGS THEREOF USEFUL AS ALDOSE REDUCTASE INHIBITORS” (AMERICAN HOME PRODUCTS CORPORATION, priority 1991, dated 1993) come the findings set out here.

The assay concerns aldose reductase. Description: Galactitol (dulcitol) accumulation in galactosemic rats, in vivo. Particulars: percentage decrease of dulcitol accumulation vs untreated galactose-fed rats, four days; for % Lowering Galactitol Accumulation In Vivo %(D): diaphragm; for % Lowering Galactitol Accumulation In Vivo %(L): lens. The source says:
The aldose reductase inhibiting property of the compounds of this invention and the utilization of the compounds in preventing, diminishing and alleviating diabetic complications are demonstrable in experiments using galactosemic rats, see Dvornik et al., Science, 182, 1146 (1973). Such experiments are exemplified hereinbelow after the listing of the following general comments pertaining to these experiments: • (a) Four or more groups of six male rats, 50-70 g, Sprague-Dawley strain, were used. The first group, the control group, was fed a mixture of laboratory chow (rodent Laboratory Chow, Purina) and glucose at 20% (w/w %) concentration. An untreated galactosemic group was fed a similar diet in which galactose was substituted for glucose. The third group was fed a diet prepared by mixing a given amount of the test compound with the galactose containing diet The concentration of galactose in the diet of the treated groups was the same as that for the untreated galactosemic group. • (b) After four days, the animals were killed by euthanization. Both the lens and sciatic nerve were removed, weighed and stored frozen for polyol determination. • (c) The polyol determination was performed by a modification of the procedure of M. Kraml and L. Cosyns, Clin. Biochem., 2, 373 (1969). Only two minor reagent changes were made: (a) the rinsing mixture was an aqueous 5% (w/v) trichloroacetic acid solution and (b) the stock solution was prepared by dissolving 25 mg of dulcitol in 100 mL of an aqueous trichloroacetic acid solution. [N.B.: For each experiment the average value found in the tissue from rats fed the glucose diet was subtracted from the individual values found in the corresponding tissue in galactose-fed rats to obtain the amount of polyol accumulated.] The aldose reductase inhibiting effects of the compounds of formula (I) were also tested by employing an in vitro testing procedure similar to that described by S. Hayman and J.H. Kinoshita, J. Biol. Chem., 240, 877 (1965). In the present case the procedure of Hayman and Kinoshita was modified in that the final chromatography step was omitted in the preparation of the enzyme from bovine lens.
The figures under L, N, and D represent the percentage decrease of dulcitol accumulation in the tissues of the lens, sciatic nerve, and diaphragm, respectively for treated rats as compared to untreated rats.

With `O=C1c2ccccc2C2(CC(=O)N(N=C3CCCC3)C2=O)C(=O)N1Cc1nc2cc(C(F)(F)F)ccc2s1` (stereo not drawn) [1'-(Cyclopentylideneamino)-2-[[5-(trifluoromethyl)-2-benzothiazolyl]methyl]spiro[isoquinoline-4(1H),3'pyrrolidine]-1,2',3,5'(2H)-tetrone], for the setting “Table 2, 50 mg/kg/day in diet”, the “% Lowering Galactitol Accumulation In Vivo %(D)” value came out at 95% and the “% Lowering Galactitol Accumulation In Vivo %(L)” value was found to be 28%.

Consider `CC(C)=NN1C(=O)CC2(C(=O)N(Cc3nc4cc(C(F)(F)F)ccc4s3)C(=O)c3ccccc32)C1=O` (stereo not drawn) [1'-[(1-Methylethylidene)amino]-2-[[5-(trifluoromethyl)-2-benzothiazolyl]methyl]spiro[isoquinoline]-1,2',3,5'(2H)-tetrone], for which, where the note is “Table 2, 50 mg/kg/day in diet”, the “% Lowering Galactitol Accumulation In Vivo %(D)” value is 97% and the “% Lowering Galactitol Accumulation In Vivo %(L)” value turned out to be 37%.

With `O=C1c2ccccc2C2(CC(=O)N(N=C3CCOCC3)C2=O)C(=O)N1Cc1nc2cc(C(F)(F)F)ccc2s1` (stereo not drawn) [1'-[(Tetrahydro-4H-pyran-4-ylidene)amino]-2-[[5-(trifluoromethyl)-2-benzothiazolyl]methyl]spiro[isoquinoline-4(1H),3'-pyrrolidine]-1,2',3,5'(2H)-tetrone], where the note is “Table 2, 50 mg/kg/day in diet”, the “% Lowering Galactitol Accumulation In Vivo %(D)” value is recorded as 96% and the “% Lowering Galactitol Accumulation In Vivo %(L)” value came to 41%.

As to `NN1C(=O)CC2(C1=O)C(=O)N(Cc1nc3cc(C(F)(F)F)ccc3s1)C(=O)c1ccc(F)cc12` (stereo not drawn) [R^1=F, R^4=H, R^5=H], for the setting “dose 50 mg/kg/day in diet”, the “% Lowering Galactitol Accumulation In Vivo %(D)” value is reported as 97% and the “% Lowering Galactitol Accumulation In Vivo %(L)” value was found to be 31%.

`CC(=O)NN1C(=O)CC2(C(=O)N(Cc3nc4cc(C(F)(F)F)ccc4s3)C(=O)c3ccccc32)C1=O` (stereo not drawn) [R^1=H, R^4=H, R^5=COCH3, N-[2-[[5-(trifluoromethyl)-2-benzothiazolyl]methyl]-2,3-dihydro-1,2',3,5'-tetraoxospiro[isoquinoline-4(1H),3'-pyrrolidine]-1'-yl] acetamide]: where the note is “dose 50 mg/kg/day in diet”, the “% Lowering Galactitol Accumulation In Vivo %(D)” value is on record as 97% and the “% Lowering Galactitol Accumulation In Vivo %(L)” value is listed as 40%.

Regarding `NN1C(=O)CC2(C1=O)C(=O)N(Cc1nc3cc(C(F)(F)F)ccc3s1)C(=O)c1ccccc12` (stereo not drawn) [R^1=H, R^4=H, R^5=H, 1'-Amino-2-[[5-(trifluoromethyl)-2-benzothiazolyl]methyl]spiro[isoquinoline-4(1H),3'-pyrrolidine]-1,2',3,5'(2H)-tetrone], where the note is “dose 50 mg/kg/day in diet”, the “% Lowering Galactitol Accumulation In Vivo %(D)” value is on record as 96% and the “% Lowering Galactitol Accumulation In Vivo %(L)” value worked out at 61%.
